Reference: ChEMBL document CHEMBL1201862, “PubChem BioAssay data set” (2004)
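Where inhibition never reached the appropriate level, the endpoint shown equals the highest concentration tested. Otherwise, values were interpolated linearly from a five-concentration, 48-hour dose response in 96-well plates. GI50 = concentration required for 50% inhibition of growth.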 The source made the active and inactive calls. No stated cut-off is given here; in the data, active = GI50 up to about 1.1 µM and inactive = higher.

Assays:
Assay in all cases: NCI anticancer screen, dose series, 48 h
T47D = tested on: T47D
NCI-H522 = tested on: NCI-H522
SK-MEL-2 = tested on: SK-MEL-2
MDA-MB-231 = tested on: MDA-MB-231
Hs-578T = tested on: Hs-578T
RPMI-8226 = tested on: RPMI-8226
U-251 = tested on: U-251
SR = tested on: SR
RXF 393 = tested on: RXF 393
NCI-H460 = tested on: NCI-H460
HT-29 = tested on: HT-29
OVCAR-8 = tested on: OVCAR-8
BT-549 = tested on: BT-549
CCRF-CEM = tested on: CCRF-CEM
HCC 2998 = tested on: HCC 2998
M19-MEL = tested on: M19-MEL
LXFL 529 = tested on: LXFL 529
XF498 = tested on: XF498
HOP-18 = tested on: HOP-18

Measured: GI50

COC(=O)/C=C\Sc1ccn(/C=C\C(=O)OC)c(=S)n1
inactive: T47D 18.4 µM | NCI-H522 16.1 µM | SK-MEL-2 19.9 µM | MDA-MB-231 26.1 µM | Hs-578T 25.5 µM | RPMI-8226 46 µM | U-251 19.9 µM | SR 13.7 µM | RXF 393 10.5 µM | NCI-H460 > 10 µM | HT-29 22.2 µM | OVCAR-8 19.2 µM | BT-549 22.9 µM | CCRF-CEM > 100 µM | HCC 2998 37.1 µM

COc1cc2cc[n+]3c(C)c4cc(OC)c(OC)cc4c([O-])c3c2cc1OC
inactive: NCI-H522 18.2 µM | SK-MEL-2 56.9 µM | M19-MEL 46.6 µM | LXFL 529 40.1 µM | RPMI-8226 > 100 µM | U-251 47.1 µM | SR 61 µM | RXF 393 35.6 µM | NCI-H460 > 100 µM | HT-29 41.2 µM | XF498 22.1 µM | OVCAR-8 > 100 µM | CCRF-CEM 27 µM | HCC 2998 > 100 µM

O=C1C(Cl)N(c2ccc(Cl)cc2)C1c1c[nH]c2ccccc12 (stereo not given)
inactive: NCI-H522 17.2 µM | SK-MEL-2 14.5 µM | M19-MEL 24.3 µM | LXFL 529 14.1 µM | RPMI-8226 20.6 µM | U-251 13 µM | SR 9.18 µM | RXF 393 20 µM | NCI-H460 15 µM | HT-29 17.1 µM | XF498 17.5 µM | OVCAR-8 31.3 µM | CCRF-CEM 13 µM

CC(=O)c1ccc(Oc2ccc(/C(C)=N\N=C(N)N)cc2)cc1
inactive: NCI-H522 1.8 µM | SK-MEL-2 1.73 µM | LXFL 529 4.18 µM | RPMI-8226 2.31 µM | U-251 2.77 µM | NCI-H460 2.77 µM | HT-29 1.67 µM | OVCAR-8 3.12 µM | CCRF-CEM 1.91 µM | HCC 2998 8.41 µM

CSc1cc(=O)n2c3ccccc3c3ccnc1c32
inactive: NCI-H522 > 81.8 µM | SK-MEL-2 > 100 µM | M19-MEL > 100 µM | RPMI-8226 > 90.8 µM | U-251 > 55.6 µM | RXF 393 > 49.2 µM | NCI-H460 57 µM | HT-29 > 100 µM | OVCAR-8 > 67.9 µM | CCRF-CEM > 100 µM | HCC 2998 > 100 µM

COc1ccc(/C=N/n2cnc3c(c2=O)SC(=C(C#N)C#N)N3c2ccccc2)cc1
inactive: NCI-H522 56.2 µM | M19-MEL > 100 µM | LXFL 529 > 100 µM | RPMI-8226 > 100 µM | U-251 > 100 µM | SR > 100 µM | NCI-H460 > 100 µM | HT-29 > 100 µM | OVCAR-8 > 100 µM | CCRF-CEM > 100 µM | HCC 2998 > 100 µM | HOP-18 50.7 µM
